Measurements: ChEMBL document CHEMBL3393053, “Synthesis and biological evaluation of isoindoloisoquinolinone, pyroloisoquinolinone and benzoquinazolinone derivatives as poly(ADP-ribose) polymerase-1 inhibitors” (Bioorg Med Chem, 2015)

What was measured:
[1] = Antioxidant activity against H2O2-induced oxidative stress in chicken RBC assessed as catalase activity by measuring H2O2 utilization per mg protein pre-incubated at 50 uM followed by H2O2 addition by UV spectroscopy (reference value: 15.97 +/- 2.12 nmol of H2O2 utilized/min/mg of protein); type: functional, Gallus gallus, Erythrocyte
[2] = Antioxidant activity against H2O2-induced oxidative stress in chicken RBC assessed as catalase activity by measuring H2O2 utilization per mg protein pre-incubated at 75 uM followed by H2O2 addition by UV spectroscopy (reference value: 15.97 +/- 2.12 nmol of H2O2 utilized/min/mg of protein); type: functional, Gallus gallus, Erythrocyte
[3] = Antioxidant activity against H2O2-induced oxidative stress in chicken RBC assessed as catalase activity by measuring H2O2 utilization per mg protein pre-incubated at 100 uM followed by H2O2 addition by UV spectroscopy (reference value: 15.97 +/- 2.12 nmol of H2O2 utilized/min/mg of protein); type: functional, Gallus gallus, Erythrocyte
[4] = (§1) Antioxidant activity against H2O2-induced oxidative stress in chicken RBC assessed as superoxide dismutase activity by measuring pyrogallol oxidization per mg protein pre-incubated at 25 uM followed by H2O2 addition by UV spectroscopy (reference value: 11.32 +/- 1.96 pyrogallol oxidized/min/mg of protein); type: functional, Gallus gallus, Erythrocyte
[5] = Antioxidant activity against H2O2-induced oxidative stress in chicken RBC assessed as catalase activity by measuring H2O2 utilization per mg protein pre-incubated at 25 uM followed by H2O2 addition by UV spectroscopy (reference value: 15.97 +/- 2.12 nmol of H2O2 utilized/min/mg of protein); type: functional, Gallus gallus, Erythrocyte
Erythrocyte [6] = assay: Cytoprotective activity against H2O2-induced genomic DNA damage in chicken RBC assessed as DNA level in comet head region pre-incubated at 100 uM followed by H2O2 addition by single cell alkaline gel electrophoresis and fluorescent microscopy based comet assay (reference value: 52.23 +/- 3.98%); type: functional, Gallus gallus
Erythrocyte [7] = assay: Cytoprotective activity against H2O2-induced genomic DNA damage in chicken RBC assessed as DNA level in comet tail region pre-incubated at 100 uM followed by H2O2 addition by single cell alkaline gel electrophoresis and fluorescent microscopy based comet assay (reference value: 45.78 +/- 3.24%); type: functional, Gallus gallus
[8] = as §1, with “50” for “25”; type: functional, Gallus gallus, Erythrocyte
[9] = as §1, with “100” for “25”; type: functional, Gallus gallus, Erythrocyte
[10] = Toxicity against chicken RBC assessed as effect on cell viability at 25 to 100 uM by acridine orange and ethidium bromide staining method; type: cell-based, Gallus gallus; settings: erythrocyte
[11] = (§2) Antioxidant activity against H2O2-induced oxidative stress in chicken RBC assessed as lipid peroxidation level by measuring malondialdehyde formation per mg protein pre-incubated at 75 uM followed by H2O2 addition by UV spectroscopy (reference value: 84.32 +/- 12.04 nmol malondialdehyde formed/mg protein); type: functional, Gallus gallus, Erythrocyte
[12] = as §2, with “25” for “75”; type: functional, Gallus gallus, Erythrocyte
[13] = as §2, with “50” for “75”; type: functional, Gallus gallus, Erythrocyte
[14] = as §2, with “100” for “75”; type: functional, Gallus gallus, Erythrocyte
[15] = as §1, with “75” for “25”; type: functional, Gallus gallus, Erythrocyte
[16] = Cytoprotective activity against H2O2-induced cytotoxicity in chicken RBC assessed as cell viability pre-incubated at 100 uM followed by H2O2 addition by acridine orange and ethidium bromide staining method (reference value: 41 +/- 2.08%); type: functional; settings: Gallus gallus, Erythrocyte; read-out: Activity
[17] = molecular target: Poly [ADP-ribose] polymerase 1 (Homo sapiens, UniProt P09874); assay: Inhibition of PARP1 (unknown origin) in presence of NAD+ by homogenous fluorescence plate assay
Sequence of Poly [ADP-ribose] polymerase 1 (P09874 whole entry): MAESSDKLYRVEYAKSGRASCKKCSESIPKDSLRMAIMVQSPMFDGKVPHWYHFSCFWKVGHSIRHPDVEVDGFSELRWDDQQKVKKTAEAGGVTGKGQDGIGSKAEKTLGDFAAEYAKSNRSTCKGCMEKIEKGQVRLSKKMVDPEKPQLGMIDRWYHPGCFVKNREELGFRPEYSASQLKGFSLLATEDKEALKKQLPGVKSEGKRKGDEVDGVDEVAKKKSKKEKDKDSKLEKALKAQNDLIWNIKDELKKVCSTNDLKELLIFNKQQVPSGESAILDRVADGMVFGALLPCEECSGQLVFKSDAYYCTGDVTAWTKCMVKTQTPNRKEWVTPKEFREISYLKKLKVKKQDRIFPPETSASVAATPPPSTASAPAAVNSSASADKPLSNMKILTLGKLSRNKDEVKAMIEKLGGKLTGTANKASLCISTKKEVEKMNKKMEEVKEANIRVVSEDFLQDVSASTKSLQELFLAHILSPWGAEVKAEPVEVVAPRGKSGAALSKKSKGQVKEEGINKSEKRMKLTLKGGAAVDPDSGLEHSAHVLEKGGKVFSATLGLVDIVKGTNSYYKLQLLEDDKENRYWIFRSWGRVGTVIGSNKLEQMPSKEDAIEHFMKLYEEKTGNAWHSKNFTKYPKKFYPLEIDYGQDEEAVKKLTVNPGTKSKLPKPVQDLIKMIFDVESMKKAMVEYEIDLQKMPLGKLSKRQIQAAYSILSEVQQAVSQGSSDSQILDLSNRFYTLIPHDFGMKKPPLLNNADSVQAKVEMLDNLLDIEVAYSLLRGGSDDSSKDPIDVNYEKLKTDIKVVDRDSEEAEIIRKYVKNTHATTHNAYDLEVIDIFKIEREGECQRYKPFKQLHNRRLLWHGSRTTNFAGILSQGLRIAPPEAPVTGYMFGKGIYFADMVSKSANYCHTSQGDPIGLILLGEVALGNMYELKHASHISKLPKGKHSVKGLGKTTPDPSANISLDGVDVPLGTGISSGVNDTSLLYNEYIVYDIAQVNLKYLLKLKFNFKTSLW

`COc1ccc2c(c1OC)CCN1C(=O)c3ccccc3C21O` (stereo unspecified) showed an Activity [1] of 16.25 nmol/min/mg, an Activity [2] of 16.46 nmol/min/mg and an Activity [3] of 16.37 nmol/min/mg protein. The Activity [4] was 13.19 µmol/min, the Activity [5] was 15.31 nmol/min/mg and the Activity (Erythrocyte [6]) was 56.64%. The Activity (Erythrocyte [7]) was 42.97%, the Activity [8] was 15.96 µmol/min and the Activity [9] was 18.13 µmol/min. For the same compound, the Activity [10] was “Non-toxic”, the Activity [11] was 41.21 nmol/mg protein and the Activity [12] was 53.65 nmol/mg protein. For the same compound, the Activity [13] was 46.37 nmol/mg protein, the Activity [14] was 48.32 nmol/mg protein and the Activity [15] was 15.54 µmol/min. The viability at 100 µM [16] was 65.6%.
In the case of `COc1cc2c(cc1OC)C1(O)c3ccccc3C(=O)N1CC2` (stereo unspecified), the Activity [1] is reported as 43.65 nmol/min/mg, the Activity [2] is reported as 48.43 nmol/min/mg and the Activity [3] is reported as 64.87 nmol/min/mg protein. For the same compound, the Activity [4] was 17.34 µmol/min, the Activity [5] was 26.54 nmol/min/mg and the Activity (Erythrocyte [6]) was 65.56%. For the same compound, the Activity (Erythrocyte [7]) was 34.44%, the Activity [8] was 19.35 µmol/min and the Activity [9] was 28.45 µmol/min. For the same compound, the Activity [10] was “Non-toxic”, the Activity [11] was 16.54 nmol/mg protein and the Activity [12] was 38.46 nmol/mg protein. The Activity [13] was 29.27 nmol/mg protein, the Activity [14] was 18.32 nmol/mg protein and the Activity [15] was 23.98 µmol/min. It also gave a viability at 100 µM [16] of 79.3%.
`O=C1NCCc2c(OCCCCN3CCCCC3)cccc21` gave an IC50 [17] of 53.2 nM.
For `COc1cc2c(cc1OC)C1(O)C3C4c5ccccc5C(c5ccccc54)C3C(=O)N1CC2` (stereo unspecified), the Activity [1] was 55.89 nmol/min/mg, the Activity [2] was 65.12 nmol/min/mg and the Activity [3] was 67.91 nmol/min/mg protein. It also gave an Activity [4] of 15.86 µmol/min, an Activity [5] of 46.11 nmol/min/mg and an Activity (Erythrocyte [6]) of 82.45%. For the same compound, the Activity (Erythrocyte [7]) was 16.55%, the Activity [8] was 19.63 µmol/min and the Activity [9] was 27.87 µmol/min. The Activity [10] was “Non-toxic”, the Activity [11] was 24.44 nmol/mg protein and the Activity [12] was 51.48 nmol/mg protein. The Activity [13] was 35.6 nmol/mg protein, the Activity [14] was 18.1 nmol/mg protein and the Activity [15] was 23.58 µmol/min. For the same compound, the viability at 100 µM [16] was 87.3%.
`COc1ccc2c(c1)CCN1C(=O)c3ccccc3C21O` (stereo unspecified) gave an Activity [1] of 16.25 nmol/min/mg, an Activity [2] of 16.46 nmol/min/mg and an Activity [3] of 16.37 nmol/min/mg protein. It also gave an Activity [4] of 12.65 µmol/min, an Activity [5] of 15.31 nmol/min/mg and an Activity (Erythrocyte [6]) of 57.29%. For the same compound, the Activity (Erythrocyte [7]) was 41.96%, the Activity [8] was 11.87 µmol/min and the Activity [9] was 11.37 µmol/min. The Activity [10] was “Non-toxic”, the Activity [11] was 48.12 nmol/mg protein and the Activity [12] was 62.98 nmol/mg protein. It also gave an Activity [13] of 56.32 nmol/mg protein, an Activity [14] of 42.14 nmol/mg protein and an Activity [15] of 11.48 µmol/min. The viability at 100 µM [16] was 53.6%.
Work on `Cc1ccc2c(c1)CCN1C(=O)c3ccccc3C21O` (stereo unspecified) yielded an Activity [1] of 50.35 nmol/min/mg, an Activity [2] of 54.56 nmol/min/mg and an Activity [3] of 65.35 nmol/min/mg protein. It also gave an Activity [4] of 11.51 µmol/min, an Activity [5] of 31.71 nmol/min/mg and an Activity (Erythrocyte [6]) of 87.56%. It also gave an Activity (Erythrocyte [7]) of 11.44%, an Activity [8] of 14.56 µmol/min and an Activity [9] of 18.6 µmol/min. For the same compound, the Activity [10] was “Non-toxic”, the Activity [11] was 26.52 nmol/mg protein and the Activity [12] was 53.66 nmol/mg protein. It also gave an Activity [13] of 43.76 nmol/mg protein, an Activity [14] of 16.95 nmol/mg protein and an Activity [15] of 15.08 µmol/min. It also gave a viability at 100 µM [16] of 82.3%.
`O=C1c2ccccc2C2(O)c3ccc(Br)cc3CCN12` (stereo unspecified) showed an Activity [1] of 51.14 nmol/min/mg, an Activity [2] of 56.05 nmol/min/mg and an Activity [3] of 65.007 nmol/min/mg protein. The Activity [4] was 12.8667 µmol/min, the Activity [5] was 36.597 nmol/min/mg and the Activity (Erythrocyte [6]) was 94.32%. It also gave an Activity (Erythrocyte [7]) of 4.55%, an Activity [8] of 14.05 µmol/min and an Activity [9] of 21.58 µmol/min. For the same compound, the Activity [10] was “Non-toxic”, the Activity [11] was 34.52 nmol/mg protein and the Activity [12] was 70.74 nmol/mg protein. The Activity [13] was 54.24 nmol/mg protein, the Activity [14] was 16.75 nmol/mg protein and the Activity [15] was 17.51 µmol/min. The viability at 100 µM [16] was 75.3%.
`COc1ccc2c(c1OC)CCN1C(=O)CCCC21` (stereo unspecified) gave an Activity [1] of 25.95 nmol/min/mg, an Activity [2] of 28.47 nmol/min/mg and an Activity [3] of 31.43 nmol/min/mg protein. For the same compound, the Activity [4] was 11.76 µmol/min, the Activity [5] was 17.36 nmol/min/mg and the Activity (Erythrocyte [6]) was 73.84%. It also gave an Activity (Erythrocyte [7]) of 9.75%, an Activity [8] of 11.48 µmol/min and an Activity [9] of 12.98 µmol/min. For the same compound, the Activity [10] was “Non-toxic”, the Activity [11] was 48.23 nmol/mg protein and the Activity [12] was 61.45 nmol/mg protein. It also gave an Activity [13] of 54.23 nmol/mg protein, an Activity [14] of 49.54 nmol/mg protein and an Activity [15] of 11.95 µmol/min. For the same compound, the viability at 100 µM [16] was 86.6%.
For `COc1cc2c(c(OC)c1)C1CCC(=O)N1CC2` (stereo unspecified), the Activity [1] was 46.35 nmol/min/mg, the Activity [2] was 58.28 nmol/min/mg and the Activity [3] was 70.43 nmol/min/mg protein. It also gave an Activity [4] of 17.23 µmol/min, an Activity [5] of 38.65 nmol/min/mg and an Activity (Erythrocyte [6]) of 54.2%. For the same compound, the Activity (Erythrocyte [7]) was 45.8%, the Activity [8] was 19.43 µmol/min and the Activity [9] was 29.34 µmol/min. For the same compound, the Activity [10] was “Non-toxic”, the Activity [11] was 16.87 nmol/mg protein and the Activity [12] was 28.38 nmol/mg protein. The Activity [13] was 19.12 nmol/mg protein, the Activity [14] was 16.14 nmol/mg protein and the Activity [15] was 24.35 µmol/min. For the same compound, the viability at 100 µM [16] was 68.3%.
In the case of `COc1cc2c(cc1O)C1(O)c3ccccc3C(=O)N1CC2` (stereo unspecified), the Activity [1] is reported as 51.49 nmol/min/mg, the Activity [2] is reported as 62.57 nmol/min/mg and the Activity [3] is reported as 70.66 nmol/min/mg protein. The Activity [4] was 18.616 µmol/min, the Activity [5] was 29.52 nmol/min/mg and the Activity (Erythrocyte [6]) was 92.3%. The Activity (Erythrocyte [7]) was 7.34%, the Activity [8] was 21.63 µmol/min and the Activity [9] was 30.94 µmol/min. For the same compound, the Activity [10] was “Non-toxic”, the Activity [11] was 26.35 nmol/mg protein and the Activity [12] was 52.71 nmol/mg protein. It also gave an Activity [13] of 47.15 nmol/mg protein, an Activity [14] of 15.02 nmol/mg protein and an Activity [15] of 28.863 µmol/min. The viability at 100 µM [16] was 93.6%.
`COc1ccc(OC)c2c1CCN1C(=O)c3ccccc3C21O` (stereo unspecified) showed an Activity [1] of 31.76 nmol/min/mg, an Activity [2] of 47.53 nmol/min/mg and an Activity [3] of 68.46 nmol/min/mg protein. It also gave an Activity [4] of 16.32 µmol/min, an Activity [5] of 23.65 nmol/min/mg and an Activity (Erythrocyte [6]) of 90.45%. The Activity (Erythrocyte [7]) was 8.55%, the Activity [8] was 19.24 µmol/min and the Activity [9] was 27.76 µmol/min. The Activity [10] was “Non-toxic”, the Activity [11] was 14.24 nmol/mg protein and the Activity [12] was 36.23 nmol/mg protein. The Activity [13] was 28.21 nmol/mg protein, the Activity [14] was 20.14 nmol/mg protein and the Activity [15] was 23.76 µmol/min. For the same compound, the viability at 100 µM [16] was 72%.
